Data as given in ChEMBL document CHEMBL1201862, “PubChem BioAssay data set” (2004).
One block for each compound: values may come before it. Activity calls are given as the source filed them.

Experiments:
[1] = target: Metabotropic glutamate receptor 3 (Rattus norvegicus, UniProt P31422); experiment: mGlu3 negative allosteric modulator potency, dose response, HEK/GIRK cells, thallium flux, rat (AID 651839); assay type: functional
[2] = HepG2 cell cytotoxicity, dose response, cytotoxicity control for Shn3 inhibitor project, CellTiter-Glo, cherry-picked (AID 624134); assay type: functional, cell-based
[3] = growth suppression of beta-catenin-knockout colon cells, dose response, cell-based, HCT116, human colon tumor (AID 1045); assay type: functional;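 further: HCT116 colon tumor cells with beta catenin knocked out; cells exposed to compound for 60 hours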
INS1 = experiment: beta cell apoptosis inhibitors, cytokine rescue, dose response, luminescence, retest (AID 449756); assay type: functional, cell-based; details: Rattus norvegicus;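 further: cell death triggered by IL-1 beta plus TNF-alpha plus IFN-gamma mixture; protective hits raise ATP signal compared with cytokine alone wells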
[4] = HEK293T cytotoxicity, dose response, cytotoxicity control for miR-122 modulator project, cell-based, activator set, cherry-pick (AID 720690); assay type: functional;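 further: HEK293T human cells scored for general mammalian cytotoxicity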
[5] = target: T1, Ubiquitin-conjugating enzyme E2 N (Homo sapiens, UniProt P61088); assay type: functional;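 further: Dose-response confirmation in a TR-FRET assay detecting UBC13-driven polyubiquitin chain formation, inhibition measured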
T1 sequence (P61088 whole entry): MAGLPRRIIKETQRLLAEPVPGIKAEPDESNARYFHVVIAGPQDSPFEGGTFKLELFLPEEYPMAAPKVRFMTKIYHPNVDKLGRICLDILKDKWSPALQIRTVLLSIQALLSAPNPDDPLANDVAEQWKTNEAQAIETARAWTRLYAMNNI

[6] = inhibitors of control Renilla luciferase reporter, dose response, counter-screen for Shn3 3'UTR targeting project, Clone20-Shn3RL cells, dual-Glo, cherry-pick, set 2 (AID 720724); assay type: functional, cell-based; details: Dual-Go Shn3RL
[7] = growth suppression of PTEN-null colon cells, dose response, cell-based, HCT116 PTEN knockout (AID 1047); assay type: functional;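 further: HCT116 colon tumor cells with PTEN knocked out; cells exposed to compound for 60 hours before readout; potency for loss of cell viability measured by luminescence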
[8] = Shn3 3'UTR reporter inhibitors, dose response, cell-based, Clone20 osteoblasts, firefly luciferase, cherry-picked (AID 624132); assay type: functional;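 further: firefly luciferase luminescence from reporter carrying the Shn3 3'UTR in osteoblasts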
[9] = reduction of Shn3 3'UTR firefly luciferase signal, dose response, Schnurri-3 inhibitor project, cell-based, Clone20 osteoblasts, cherry-pick, set 2 (AID 720490); assay type: functional;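 further: actives lower the luminescence signal as inhibitors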
[10] = control 3'UTR Renilla luciferase suppression, dose response, counter-screen for Shn3 inhibitor project, cell-based, Clone20-Shn3RL, cherry-picked (AID 624133); assay type: functional
[11] = HEK293T cytotoxicity, dose response, cytotoxicity control for miR-122 modulator project, cell-based, inhibitor set, cherry-pick, set 2 (AID 720697); assay type: functional
[12] = target: T2, Scavenger receptor class B member 1 (Mus musculus, UniProt Q61009); experiment: inhibitors of SR-BI dependent HDL uptake, dose response, ldlA[mSR-BI] CHO cells, fluorescence plate reader, dry powder, set 9 (AID 623880); assay type: functional, cell-based
[13] = target: T2, Scavenger receptor class B member 1; experiment: inhibitors of SR-BI-mediated HDL uptake, dose response, cell-based, ldlA[mSR-BI] CHO, DiI fluorescence, dry powder, set 10 (AID 624029); assay type: functional

T2 sequence (Q61009 whole entry): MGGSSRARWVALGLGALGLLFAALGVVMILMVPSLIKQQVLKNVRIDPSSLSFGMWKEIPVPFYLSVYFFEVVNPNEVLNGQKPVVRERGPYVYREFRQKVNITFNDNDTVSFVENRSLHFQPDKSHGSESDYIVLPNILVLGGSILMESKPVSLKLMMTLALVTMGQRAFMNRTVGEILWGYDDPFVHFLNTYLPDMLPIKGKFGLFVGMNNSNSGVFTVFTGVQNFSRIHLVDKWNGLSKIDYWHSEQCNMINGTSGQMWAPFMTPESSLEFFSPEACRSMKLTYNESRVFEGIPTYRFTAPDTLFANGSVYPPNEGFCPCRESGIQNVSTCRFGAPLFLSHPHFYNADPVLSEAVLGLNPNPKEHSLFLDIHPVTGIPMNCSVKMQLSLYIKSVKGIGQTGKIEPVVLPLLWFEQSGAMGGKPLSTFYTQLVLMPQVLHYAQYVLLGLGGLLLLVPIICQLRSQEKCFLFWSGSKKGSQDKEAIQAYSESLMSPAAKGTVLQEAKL
Sequence of Metabotropic glutamate receptor 3 (P31422 whole entry): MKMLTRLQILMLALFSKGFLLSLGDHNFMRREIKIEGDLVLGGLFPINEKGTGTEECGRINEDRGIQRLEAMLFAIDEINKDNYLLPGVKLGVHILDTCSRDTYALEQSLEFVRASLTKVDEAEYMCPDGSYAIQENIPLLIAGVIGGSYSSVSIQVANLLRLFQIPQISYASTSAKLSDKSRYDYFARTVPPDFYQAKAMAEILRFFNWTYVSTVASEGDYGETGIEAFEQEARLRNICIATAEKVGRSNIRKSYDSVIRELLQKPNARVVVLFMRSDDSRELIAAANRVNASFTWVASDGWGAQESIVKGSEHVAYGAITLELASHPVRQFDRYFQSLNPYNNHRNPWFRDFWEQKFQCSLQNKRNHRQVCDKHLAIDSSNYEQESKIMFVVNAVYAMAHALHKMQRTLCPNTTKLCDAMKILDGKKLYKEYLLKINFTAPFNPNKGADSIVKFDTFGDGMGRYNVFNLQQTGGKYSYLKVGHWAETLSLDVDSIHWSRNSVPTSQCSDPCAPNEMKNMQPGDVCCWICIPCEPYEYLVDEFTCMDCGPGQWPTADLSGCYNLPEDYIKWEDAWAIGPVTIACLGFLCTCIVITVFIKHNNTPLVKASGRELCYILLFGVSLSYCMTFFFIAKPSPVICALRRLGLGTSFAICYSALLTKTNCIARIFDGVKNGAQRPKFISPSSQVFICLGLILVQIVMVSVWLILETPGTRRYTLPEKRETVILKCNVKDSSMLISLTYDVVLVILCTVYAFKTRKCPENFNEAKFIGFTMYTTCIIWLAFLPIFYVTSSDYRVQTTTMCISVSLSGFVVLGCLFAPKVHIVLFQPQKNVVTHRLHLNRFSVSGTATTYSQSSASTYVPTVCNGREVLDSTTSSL

IC50 [1]: 7.26 µM (active)
Structure (SMILES): O=C(c1ccc(C#Cc2ccc3c(c2)OCO3)cc1)N1CCCC(CO)C1 (centres undefined)

Structure (SMILES): CCCCNc1cc(C)nc(NCc2ccccc2)n1
AC50 [2]: 13.8 µM (active)
EC50 [3]: 3.96 µM (active)
AC50 (INS1): 2.49 µM (active)
AC50 [4]: 10.6 µM (active)
IC50 [5]: > 20 µM (inactive)
AC50 [6]: 31.1 µM (active)
EC50 [7]: 4.04 µM (active)
AC50 [8]: 0.719 µM (active)
AC50 [9]: 1.19 µM (active)
AC50 [10]: 3.36 µM (active)
AC50 [11]: 7.51 µM (active)

AC50 [12]: 45.4 µM (active)
AC50 [13]: 34.3 µM (active)
Structure (SMILES): O=C(O)CC(C(=O)Nc1cccc(C(F)(F)F)c1)C1CCCO1 (centres undefined)
